Laboratory results from US12275733B2, “Substituted pyrido[3,4-b]indoles for the treatment of cartilage disorders” (Sanofi, priority 2016, dated 2025).
Each block holds one compound with its values, some of them ahead of it.

Tested on: ATDC5 cells
Assay: Chondrogenesis activity assay in ATDC5 cells (collagen type II induction, immunofluorescence)
Assay type: cell-based, mouse
Details: Mus musculus; for EC50: collagen type II induction in ATDC5 cells, concentration reaching 50% of maximum induction; for Emax: maximum percent induction of collagen type II relative to internal reference compound at 10 μM, ATDC5 cells
How it was run: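 Collagen type II was stained in fixed, permeabilized cells with an Alexa Fluor 488 secondary and measured by high-content fluorescence imaging. ATDC5 cells had 4 days at 37 °C in insulin-supplemented differentiation medium with compound, typically 40 nM–10 μM, 0.1% DMSO. DMSO wells and a 10 μM internal reference compound were used for normalization.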

Compound: Cc1nccc2c1[nH]c1c(-c3cnn(C)c3)cc(Cl)cc12 [Example 151, 6-Chloro-1-methyl-8-(1-methyl-1H-pyrazol-4-yl)-9H-pyrido[3,4-b]indole]
- EC50: 0.54 µM
- Emax: 50 to 80%

Compound: Fc1ccc(-c2cc(Cl)cc3c4ccncc4n(CC(F)(F)F)c23)c(F)n1 [Example 63, 6-Chloro-8-(2,6-difluoro-pyridin-3-yl)-9-(2,2,2-trifluoro-ethyl)-9H-pyrido[3,4-b]indole]
- EC50: 0.59 µM
- Emax: 20 to 50%

Compound: Cc1nccc2c3cc(Cl)cc(-c4cccnc4Cl)c3n(CC3CC3)c12 [Example 284, 6-Chloro-8-(2-chloro-pyridin-3-yl)-9-cyclopropylmethyl-1-methyl-9H-pyrido[3,4-b]indole]
- EC50: 4.2 µM
- Emax: < 20%

Compound: Clc1cc(-c2cncnc2)c2[nH]c3cnccc3c2c1 [Example 141, 6-Chloro-8-pyrimidin-5-yl-9H-pyrido[3,4-b]indole]
- EC50: > 10 µM
- Emax: < 20%

Compound: CSc1ccc(-c2cc(Cl)cc3c2[nH]c2c(C)nccc23)cn1 [Example 120, 6-Chloro-1-methyl-8-(6-methylsulfanyl-pyridin-3-yl)-9H-pyrido[3,4-b]indole]
- EC50: 1.4 µM
- Emax: 50 to 80%

Compound: Cc1nccc2c1[nH]c1c(-c3cnc(-n4cccn4)nc3)cc(Cl)cc12 [Example 237, 6-Chloro-1-methyl-8-(2-pyrazol-1-yl-pyrimidin-5-yl)-9H-pyrido[3,4-b]indole]
- EC50: 0.5 µM
- Emax: > 80%

Compound: CCn1c2c(-c3ccn(Cc4cccnc4C)n3)cc(Cl)cc2c2ccnc(C)c21 [Example 6, 6-Chloro-9-ethyl-1-methyl-8-[1-(2-methyl-pyridin-3-ylmethyl)-1H-pyrazol-3-yl]-9H-pyrido[3,4-b]indole]
- EC50: 2.2 µM
- Emax: 50 to 80%

Compound: Cc1nccc2c1[nH]c1c(-c3ccc(OC(C)C)nc3)cc(Cl)cc12 [Example 102, 6-Chloro-8-(6-isopropoxy-pyridin-3-yl)-1-methyl-9H-pyrido[3,4-b]indole]
- EC50: 2.1 µM
- Emax: 20 to 50%

Compound: Cc1nccc2c1[nH]c1c(-c3ccc(C(O)c4ccccc4)cc3)cc(Cl)cc12 (stereo not shown) [Example 24, [4-(6-Chloro-1-methyl-9H-pyrido[3,4-b]indol-8-yl)-phenyl]-phenyl-methanol]
- EC50: 2 µM
- Emax: 50 to 80%

Compound: CCn1c2c(-c3cc(C)nn3C)cc(Cl)cc2c2ccnc(C)c21 [Example 9, 6-Chloro-8-(2,5-dimethyl-2H-pyrazol-3-yl)-9-ethyl-1-methyl-9H-pyrido[3,4-b]indole]
- EC50: 1.4 µM
- Emax: > 80%

Compound: Cc1nccc2c1[nH]c1c(-c3ccc(OC4CCCC4)cc3)cc(Cl)cc12 [Example 225, 6-Chloro-8-(4-cyclopentyloxy-phenyl)-1-methyl-9H-pyrido[3,4-b]indole]
- EC50: 1.7 µM
- Emax: > 80%

Compound: CCn1c2c(-c3ccc(N4CCOCC4)nc3)cc(Cl)cc2c2ccnc(C)c21 [Example 93, 6-Chloro-9-ethyl-1-methyl-8-(6-morpholin-4-yl-pyridin-3-yl)-9H-pyrido[3,4-b]indole]
- EC50: 2.2 µM
- Emax: > 80%

Compound: Cc1nccc2c1[nH]c1c(-c3ccc(Oc4ccccc4)cc3)cc(Cl)cc12 [Example 205, 6-Chloro-1-methyl-8-(4-phenoxy-phenyl)-9H-pyrido[3,4-b]indole]
- EC50: 3.3 µM
- Emax: > 80%

Compound: Cc1nccc2c3cc(Cl)cc(-c4ccc(C#N)nc4)c3n(CC3CC3)c12 [Example 47, 5-(6-Chloro-9-cyclopropylmethyl-1-methyl-9H-pyrido[3,4-b]indol-8-yl)-pyridine-2-carbonitrile]
- EC50: > 10 µM
- Emax: 20 to 50%

Compound: Cc1nccc2c3cc(Cl)cc(-c4ccccc4C(N)=O)c3n(CC3CC3)c12 [Example 292, 2-(6-Chloro-9-cyclopropylmethyl-1-methyl-9H-pyrido[3,4-b]indol-8-yl)-benzamide]
- EC50: > 6.6 µM
- Emax: < 20%

Compound: CCn1c2c(-c3cnn(CCOC(C)=O)c3)cc(Cl)cc2c2ccnc(C)c21 [Example 263, Acetic acid 2-[4-(6-chloro-9-ethyl-1-methyl-9H-pyrido[3,4-b]indol-8-yl)-pyrazol-1-yl]-ethyl ester]
- EC50: 0.55 µM
- Emax: > 80%

Compound: Cc1nccc2c1[nH]c1c(-c3ccnn3C)cc(Cl)cc12 [Example 227, 6-Chloro-1-methyl-8-(2-methyl-2H-pyrazol-3-yl)-9H-pyrido[3,4-b]indole]
- EC50: 0.33 µM
- Emax: > 80%

Compound: CC(C)n1cc(-c2cc(Cl)cc3c4ccncc4n(CC(F)(F)F)c23)cn1 [Example 160, 6-Chloro-8-(1-isopropyl-1H-pyrazol-4-yl)-9-(2,2,2-trifluoro-ethyl)-9H-pyrido[3,4-b]indole]
- EC50: > 10 µM
- Emax: < 20%

Compound: Cc1nccc2c3cc(Cl)cc(-c4cncnc4)c3n(CC3CC3)c12 [Example 281, 6-Chloro-9-cyclopropylmethyl-1-methyl-8-pyrimidin-5-yl-9H-pyrido[3,4-b]indole]
- EC50: 0.11 µM
- Emax: < 20%

Compound: Cc1cc(OC(C)C)ccc1-c1cc(Cl)cc2c1[nH]c1c(C)nccc12 [Example 176, 6-Chloro-8-(4-isopropoxy-2-methyl-phenyl)-1-methyl-9H-pyrido[3,4-b]indole]
- EC50: > 10 µM
- Emax: 20 to 50%

Compound: FC(F)(F)Cn1c2cnccc2c2cc(Cl)cc(-c3ccc(N4CCCCC4)nc3)c21 [Example 89, 6-Chloro-8-(3,4,5,6-tetrahydro-2H-[1,2′]bipyridinyl-5′-yl)-9-(2,2,2-trifluoro-ethyl)-9H-pyrido[3,4-b]indole]
- EC50: > 10 µM
- Emax: > 80%

Compound: COc1cc(OC)nc(COc2ccc(-c3cc(Cl)cc4c3[nH]c3c(C)nccc34)cc2)n1 [Example 275, 6-Chloro-8-[4-(4,6-dimethoxy-pyrimidin-2-ylmethoxy)-phenyl]-1-methyl-9H-pyrido[3,4-b]indole]
- EC50: 0.3 µM
- Emax: > 80%

Compound: COc1ncc(-c2cc(Cl)cc3c2[nH]c2c(C)nccc23)cc1F [Example 99, 6-Chloro-8-(5-fluoro-6-methoxy-pyridin-3-yl)-1-methyl-9H-pyrido[3,4-b]indole]
- EC50: > 10 µM
- Emax: < 20%

Second part, led by results:

- EC50: 0.6 µM
Compound: COCCn1c2cnccc2c2cc(Cl)cc(-c3ccc(OC)cc3)c21 [Example 201, 6-Chloro-9-(2-methoxy-ethyl)-8-(4-methoxy-phenyl)-9H-pyrido[3,4-b]indole]
- Emax: > 80%

- EC50: 1.8 µM
Compound: COCCn1c2cnccc2c2cc(Cl)cc(-c3ccc(Cl)nc3Cl)c21 [Example 111, 6-Chloro-8-(2,6-dichloro-pyridin-3-yl)-9-(2-methoxy-ethyl)-9H-pyrido[3,4-b]indole]
- Emax: 50 to 80%

- EC50: 0.83 µM
Compound: N#CCn1c2cnccc2c2cc(Cl)cc(-c3ccc(Cl)nc3Cl)c21 [Example 4, 2-(6-Chloro-8-(2,6-dichloropyridin-3-yl)-9H-pyrido[3,4-b]indol-9-yl)acetonitrile]
- Emax: > 80%

- EC50: 0.74 µM
Compound: CCn1c2cnccc2c2cc(Cl)cc(-c3ccc(C)nc3)c21 [Example 67, 6-Chloro-9-ethyl-8-(6-methyl-pyridin-3-yl)-9H-pyrido[3,4-b]indole]
- Emax: 20 to 50%

- EC50: 1 µM
Compound: CCn1c2c(-c3ccncc3)cc(Cl)cc2c2ccnc(C)c21 [Example 125, 6-Chloro-9-ethyl-1-methyl-8-pyridin-4-yl-9H-pyrido[3,4-b]indole]
- Emax: > 80%

- EC50: 0.33 µM
Compound: Cn1cc(-c2cc(Cl)cc3c4ccncc4n(CC(F)(F)F)c23)cn1 [Example 135, 6-Chloro-8-(1-methyl-1H-pyrazol-4-yl)-9-(2,2,2-trifluoro-ethyl)-9H-pyrido[3,4-b]indole]
- Emax: 50 to 80%

- EC50: 2 µM
Compound: Fc1cncc(-c2cc(Cl)cc3c4ccncc4n(CC(F)(F)F)c23)c1 [Example 82, 6-Chloro-8-(5-fluoro-pyridin-3-yl)-9-(2,2,2-trifluoro-ethyl)-9H-pyrido[3,4-b]indole]
- Emax: 20 to 50%

- EC50: > 10 µM
Compound: CN(C)c1ccc(-c2cc(Cl)cc3c4ccncc4n(CC(F)(F)F)c23)cn1 [Example 84, (5-[6-Chloro-9-(2,2,2-trifluoro-ethyl)-9H-pyrido[3,4-b]indol-8-yl]-pyridin-2-yl)-dimethyl-amine]
- Emax: 20 to 50%

- EC50: 1.2 µM
Compound: COc1ccc(-c2cc(Cl)cc3c4ccncc4n(CC4(C)COC4)c23)cc1 [Example 52, 6-Chloro-8-(4-methoxy-phenyl)-9-(3-methyl-oxetan-3-ylmethyl)-9H-pyrido[3,4-b]indole]
- Emax: 50 to 80%

- EC50: 4.5 µM
Compound: COc1ccc(-c2cc(Cl)cc3c4ccnc(C)c4n(CC4CC4)c23)cc1 [Example 293, 6-Chloro-9-cyclopropylmethyl-8-(4-methoxy-phenyl)-1-methyl-9H-pyrido[3,4-b]indole]
- Emax: 50 to 80%

- EC50: 0.55 µM
Compound: COc1ccc(-c2cc(Cl)cc3c2[nH]c2cnccc23)cc1 [Example 191, 6-Chloro-8-(4-methoxy-phenyl)-9H-pyrido[3,4-b]indole]
- Emax: > 80%

- EC50: 0.86 µM
Compound: FC(F)(F)Cn1c2cnccc2c2cc(Cl)cc(-c3ccc(Cl)cc3)c21 [Example 129, 6-Chloro-8-(4-chloro-phenyl)-9-(2,2,2-trifluoro-ethyl)-9H-pyrido[3,4-b]indole]
- Emax: > 80%

- EC50: 1.1 µM
Compound: CCn1c2cnccc2c2cc(Cl)cc(-c3ccc(Cl)nc3)c21 [Example 54, 6-Chloro-8-(6-chloro-pyridin-3-yl)-9-ethyl-9H-pyrido[3,4-b]indole]
- Emax: 20 to 50%

- EC50: 2.1 µM
Compound: FC(F)(F)Cn1c2cnccc2c2cc(Cl)cc(-c3ccc(Cl)nc3)c21 [Example 66, 6-Chloro-8-(6-chloro-pyridin-3-yl)-9-(2,2,2-trifluoro-ethyl)-9H-pyrido[3,4-b]indole]
- Emax: 50 to 80%

- EC50: 2.6 µM
Compound: CCn1c2cnccc2c2cc(Cl)cc(-c3ccco3)c21 [Example 124, 6-Chloro-9-ethyl-8-furan-2-yl-9H-pyrido[3,4-b]indole]
- Emax: < 20%
